SMILES strings stand for the structures. pIC50: −log10 of the molar value. ≈ marks a conversion by molar mass, not a printed value.

For experiment [1], the target named is Human ACC2 (Homo sapiens, UniProt O00763). The experiment is described as follows: In vitro ACC2 inhibition assay (ADP-Glo), human ACC2. Conditions: 5 nM ACC2, 20 μM ATP, 20 μM acetyl-CoA. Format: biochemical. (In general: ADP-Glo turns the ADP formed in a reaction into a luminescent signal.)
Experiment [2] relates to C. albicans ATCC 90028. The experiment is described as follows: Anti-Fungal Activity Assay (broth microtiter MIC), C. albicans. Format: cell-based, Candida albicans. As to conditions: 3 replicates, MIC recorded at 48 h; for MIC: Candida albicans, ATCC90028, 48 h, read-out: MIC C. albicans ATCC 90028. In outline:
(§1)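 Plate from frozen stock onto Sabouraud dextrose agar, 35° C overnight; swab colonies into RPMI 1640+MOPS; set density via standard curves; run CLSI M27-A3 broth microdilution; score MIC visually versus growth control at 48 h, soraphen additionally at 24 h.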

For experiment [3], the system named is C. krusei ATCC 6258. The experiment is described as follows: Anti-Fungal Activity Assay (broth microtiter MIC), C. krusei. As to conditions: 3 replicates, MIC recorded at 48 h; for MIC: Pichia kudriavzevii, ATCC6258, 48 h, read-out: MIC C. krusei ATCC 6258. Format: cell-based, Candida krusei. Summed up:
as §1

For experiment [4], the system named is C. parapsilosis ATCC 22019. The experiment is described as follows: Anti-Fungal Activity Assay (broth microtiter MIC), C. parapsilosis. In kind it is cell-based, Candida parapsilosis. As to conditions: 3 replicates, MIC recorded at 48 h; for MIC: Lodderomyces parapsilosis, ATCC22019, 48 h, read-out: MIC C. parapsilosis ATCC 22019. In outline: as §1
The target in experiment [5] is Fungal ACC2 (UniProt Q00955). Conditions: read-out: Fungal ACC2 (IC50, in vitro ACC2 inhibition).
Chain of Fungal ACC2 (Q00955 whole entry): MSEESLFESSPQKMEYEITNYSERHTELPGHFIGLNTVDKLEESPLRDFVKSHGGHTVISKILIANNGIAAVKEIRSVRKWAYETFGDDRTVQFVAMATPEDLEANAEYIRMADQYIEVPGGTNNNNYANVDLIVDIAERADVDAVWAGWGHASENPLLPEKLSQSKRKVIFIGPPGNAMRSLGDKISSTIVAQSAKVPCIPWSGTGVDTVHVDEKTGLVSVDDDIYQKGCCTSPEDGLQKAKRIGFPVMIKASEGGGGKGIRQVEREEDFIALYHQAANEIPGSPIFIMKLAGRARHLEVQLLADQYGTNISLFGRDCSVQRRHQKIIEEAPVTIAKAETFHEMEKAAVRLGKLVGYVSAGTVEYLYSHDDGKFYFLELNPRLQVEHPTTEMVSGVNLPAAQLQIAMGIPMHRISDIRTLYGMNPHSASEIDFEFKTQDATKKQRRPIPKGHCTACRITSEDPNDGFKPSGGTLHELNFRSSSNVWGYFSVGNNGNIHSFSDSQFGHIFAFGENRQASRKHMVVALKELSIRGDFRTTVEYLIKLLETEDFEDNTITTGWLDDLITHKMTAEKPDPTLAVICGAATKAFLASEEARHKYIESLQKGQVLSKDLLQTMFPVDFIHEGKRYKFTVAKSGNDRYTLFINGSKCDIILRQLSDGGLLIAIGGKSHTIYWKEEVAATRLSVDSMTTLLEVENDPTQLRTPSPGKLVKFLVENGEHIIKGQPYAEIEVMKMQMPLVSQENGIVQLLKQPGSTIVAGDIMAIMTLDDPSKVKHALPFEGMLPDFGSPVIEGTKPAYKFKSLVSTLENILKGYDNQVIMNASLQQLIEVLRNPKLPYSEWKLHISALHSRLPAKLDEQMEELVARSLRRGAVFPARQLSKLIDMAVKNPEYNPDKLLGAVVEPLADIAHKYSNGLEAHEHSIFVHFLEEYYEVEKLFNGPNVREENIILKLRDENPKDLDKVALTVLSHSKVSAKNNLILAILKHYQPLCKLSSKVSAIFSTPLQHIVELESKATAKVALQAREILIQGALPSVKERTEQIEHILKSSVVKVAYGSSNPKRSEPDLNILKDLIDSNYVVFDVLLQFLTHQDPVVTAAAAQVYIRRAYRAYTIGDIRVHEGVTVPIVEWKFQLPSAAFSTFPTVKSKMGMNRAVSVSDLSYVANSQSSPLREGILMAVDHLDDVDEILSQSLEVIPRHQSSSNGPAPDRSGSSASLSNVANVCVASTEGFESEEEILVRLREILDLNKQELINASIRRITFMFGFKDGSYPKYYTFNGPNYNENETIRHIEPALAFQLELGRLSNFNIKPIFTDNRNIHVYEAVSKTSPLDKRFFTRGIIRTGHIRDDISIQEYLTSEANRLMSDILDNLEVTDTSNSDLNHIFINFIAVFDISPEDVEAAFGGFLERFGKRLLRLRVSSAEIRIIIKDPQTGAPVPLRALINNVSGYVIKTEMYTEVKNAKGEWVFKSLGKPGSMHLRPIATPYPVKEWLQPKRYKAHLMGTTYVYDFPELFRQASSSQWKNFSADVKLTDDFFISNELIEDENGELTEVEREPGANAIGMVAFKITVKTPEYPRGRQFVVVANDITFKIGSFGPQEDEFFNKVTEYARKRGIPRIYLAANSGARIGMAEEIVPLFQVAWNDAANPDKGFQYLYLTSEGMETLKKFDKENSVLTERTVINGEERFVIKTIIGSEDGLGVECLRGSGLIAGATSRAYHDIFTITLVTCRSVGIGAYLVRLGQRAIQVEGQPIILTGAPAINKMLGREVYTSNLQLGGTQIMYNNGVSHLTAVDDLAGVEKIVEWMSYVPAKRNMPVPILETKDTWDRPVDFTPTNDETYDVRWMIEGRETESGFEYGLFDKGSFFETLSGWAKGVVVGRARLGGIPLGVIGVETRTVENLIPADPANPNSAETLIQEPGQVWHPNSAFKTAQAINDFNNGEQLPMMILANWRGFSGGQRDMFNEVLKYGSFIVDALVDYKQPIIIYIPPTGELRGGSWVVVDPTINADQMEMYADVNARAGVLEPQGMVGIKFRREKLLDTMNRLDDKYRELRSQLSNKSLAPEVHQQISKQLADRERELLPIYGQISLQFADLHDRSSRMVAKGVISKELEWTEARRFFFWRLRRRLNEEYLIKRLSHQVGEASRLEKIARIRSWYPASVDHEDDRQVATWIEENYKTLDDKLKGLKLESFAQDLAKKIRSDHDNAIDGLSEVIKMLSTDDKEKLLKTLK

Chain of Human ACC2 (O00763 whole entry): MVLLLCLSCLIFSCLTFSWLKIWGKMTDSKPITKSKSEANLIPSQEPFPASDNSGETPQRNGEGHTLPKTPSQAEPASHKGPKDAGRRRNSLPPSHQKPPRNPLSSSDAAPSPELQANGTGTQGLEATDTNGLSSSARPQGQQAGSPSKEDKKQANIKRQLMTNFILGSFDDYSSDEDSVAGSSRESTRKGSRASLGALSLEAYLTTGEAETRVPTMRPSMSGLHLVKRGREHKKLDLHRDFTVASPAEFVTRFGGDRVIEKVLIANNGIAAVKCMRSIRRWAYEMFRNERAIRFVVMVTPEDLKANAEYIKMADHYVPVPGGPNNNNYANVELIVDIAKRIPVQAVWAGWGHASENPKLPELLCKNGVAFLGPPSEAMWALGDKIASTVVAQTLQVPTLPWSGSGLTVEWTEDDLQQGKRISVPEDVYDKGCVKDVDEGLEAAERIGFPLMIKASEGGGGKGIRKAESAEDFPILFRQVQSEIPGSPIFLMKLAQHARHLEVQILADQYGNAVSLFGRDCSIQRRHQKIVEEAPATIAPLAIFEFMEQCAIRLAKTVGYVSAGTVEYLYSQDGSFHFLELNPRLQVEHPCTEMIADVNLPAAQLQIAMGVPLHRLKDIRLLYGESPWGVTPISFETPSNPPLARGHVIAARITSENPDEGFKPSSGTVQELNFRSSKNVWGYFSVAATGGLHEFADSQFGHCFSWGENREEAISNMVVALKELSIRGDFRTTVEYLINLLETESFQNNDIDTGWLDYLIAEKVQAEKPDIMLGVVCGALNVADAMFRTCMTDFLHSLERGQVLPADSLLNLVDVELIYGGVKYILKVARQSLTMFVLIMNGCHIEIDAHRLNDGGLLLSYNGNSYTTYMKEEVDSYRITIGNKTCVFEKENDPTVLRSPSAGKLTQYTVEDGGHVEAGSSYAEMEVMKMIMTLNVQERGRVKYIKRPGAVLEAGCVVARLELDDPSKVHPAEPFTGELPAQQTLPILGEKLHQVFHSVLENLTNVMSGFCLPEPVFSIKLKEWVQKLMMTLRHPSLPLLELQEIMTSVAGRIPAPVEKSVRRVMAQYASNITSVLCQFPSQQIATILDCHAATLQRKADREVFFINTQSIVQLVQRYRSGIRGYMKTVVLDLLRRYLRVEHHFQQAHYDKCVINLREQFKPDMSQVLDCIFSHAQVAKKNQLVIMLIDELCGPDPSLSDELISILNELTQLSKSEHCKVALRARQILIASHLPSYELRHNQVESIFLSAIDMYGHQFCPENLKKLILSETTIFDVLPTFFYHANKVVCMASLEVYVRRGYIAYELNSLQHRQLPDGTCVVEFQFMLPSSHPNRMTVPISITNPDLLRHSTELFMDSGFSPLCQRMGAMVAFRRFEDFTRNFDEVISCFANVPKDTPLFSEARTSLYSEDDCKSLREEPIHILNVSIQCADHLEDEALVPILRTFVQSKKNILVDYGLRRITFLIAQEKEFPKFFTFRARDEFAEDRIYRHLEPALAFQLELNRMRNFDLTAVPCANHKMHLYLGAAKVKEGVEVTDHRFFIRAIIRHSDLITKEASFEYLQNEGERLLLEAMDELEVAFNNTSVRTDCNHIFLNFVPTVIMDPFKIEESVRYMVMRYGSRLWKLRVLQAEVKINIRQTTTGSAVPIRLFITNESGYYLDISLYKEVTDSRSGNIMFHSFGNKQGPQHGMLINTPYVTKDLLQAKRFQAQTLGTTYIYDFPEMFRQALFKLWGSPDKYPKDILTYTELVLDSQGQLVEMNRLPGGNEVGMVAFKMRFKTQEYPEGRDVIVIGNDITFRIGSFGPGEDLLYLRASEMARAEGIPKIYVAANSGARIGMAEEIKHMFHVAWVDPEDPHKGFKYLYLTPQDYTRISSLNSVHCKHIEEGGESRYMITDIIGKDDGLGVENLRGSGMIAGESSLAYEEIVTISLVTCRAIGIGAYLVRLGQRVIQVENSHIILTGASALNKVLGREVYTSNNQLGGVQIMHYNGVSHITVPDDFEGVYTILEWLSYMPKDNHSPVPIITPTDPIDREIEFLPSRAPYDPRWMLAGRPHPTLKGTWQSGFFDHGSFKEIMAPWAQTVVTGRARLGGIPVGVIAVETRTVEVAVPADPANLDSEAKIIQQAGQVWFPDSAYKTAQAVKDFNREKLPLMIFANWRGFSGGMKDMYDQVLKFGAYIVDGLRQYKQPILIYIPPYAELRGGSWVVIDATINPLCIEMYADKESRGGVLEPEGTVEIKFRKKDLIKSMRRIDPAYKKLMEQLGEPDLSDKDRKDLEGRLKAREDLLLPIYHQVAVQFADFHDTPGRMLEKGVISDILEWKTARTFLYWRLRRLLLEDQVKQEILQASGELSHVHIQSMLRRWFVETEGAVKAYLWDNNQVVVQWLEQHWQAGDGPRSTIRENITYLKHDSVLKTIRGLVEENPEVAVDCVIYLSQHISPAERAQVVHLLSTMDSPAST

Take `COc1ccc(F)cc1[C@H](COc1nc2sc(-n3nccn3)c(C)c2c(=O)n1C1CC(=O)N(C)C1)OCCO` (stereo in doubt) [Compound I-113, 2-((R)-2-(5-fluoro-2-methoxyphenyl)-2-(2-hydroxy-ethoxy)ethoxy)-5-methyl-3-((S)-1-methyl-5-oxopyrrolidin-3-yl)-6-(2H-1,2,3-triazol-2-yl)thieno[2,3-d]pyrimidin-4(3H)-one]: the figures for the negative-log IC50 (pIC50) in experiment [1] and in experiment [5] were < 6.00 and 7.00 to 8.00, respectively. In addition, in experiment [2], the “MIC C. albicans ATCC 90028” value is given as “C (provided an MIC of 2.1-4.0 μg/mL)”. In experiment [3], the “MIC C. krusei ATCC 6258” value is reported as “C (provided an MIC of 2.1-4.0 μg/mL)”. Moreover, the “MIC C. parapsilosis ATCC 22019” value in experiment [4] was “C (provided an MIC of 2.1-4.0 μg/mL)”.
Regarding `COc1ccc(F)cc1C(=O)Cn1c(=O)n(C2CCN(C)C2=O)c(=O)c2c(C)c(-n3nccn3)sc21` (stereo in doubt) [Compound I-162, (R)-1-(2-(5-fluoro-2-methoxyphenyl)-2-oxoethyl)-5-methyl-3-(1-methyl-2-oxopyrrolidin-3-yl)-6-(2H-1,2,3-triazol-2-yl)thieno[2,3-d]pyrimidine-2,4(1H,3H)-dione], the figures for the pIC50 in experiment [1] and in experiment [5] were 6.00 to 7.00 and 7.00 to 8.00, respectively. Further, the “MIC C. albicans ATCC 90028” value in experiment [2] was “C (provided an MIC of 2.1-4.0 μg/mL)”. Moreover, the “MIC C. krusei ATCC 6258” value in experiment [3] is “C (provided an MIC of 2.1-4.0 μg/mL)”. In experiment [4], the “MIC C. parapsilosis ATCC 22019” value is recorded as “C (provided an MIC of 2.1-4.0 μg/mL)”.
On to `COCCO[C@@H](Cn1c(=O)n(C2CCNC2=O)c(=O)c2c(C)c(-n3nccn3)sc21)c1cc(F)ccc1OC` (stereo partly drawn) [Compound I-1, 1-((R)-2-(5-fluoro-2-methoxyphenyl)-2-(2-methoxyethoxy)ethyl)-5-methyl-3-(2-oxopyrrolidin-3-yl)-6-(2H-1,2,3-triazol-2-yl)thieno[2,3-d]pyrimidine-2,4(1H,3H)-dione], for which the pIC50 in experiment [1] is 8.00 to 8.70; in experiment [5] it was 8.70 to 9.15. Also, the MIC in experiment [2], in experiment [3] and in experiment [4] was 2.1 to 4 µg/mL (≈ 3.76 to 7.16 µM) each time.
Take `COCCO[C@@H](Cn1c(=O)n(C2CCN(C)C2=O)c(=O)c2c(C)c(-n3nccn3)sc21)c1cc(F)ccc1OC` (stereo partly drawn) [Compound I-2, 1-((R)-2-(5-fluoro-2-methoxyphenyl)-2-(2-methoxy-ethoxy)ethyl)-5-methyl-3-(1-methyl-2-oxopyrrolidin-3-yl)-6-(2H-1,2,3-triazol-2-yl)thieno[2,3-d]pyrimidine-2,4(1H,3H)-dione]: the pIC50 was 7.00 to 8.00 in experiment [1] and 8.00 to 8.70 in experiment [5]. The MIC in experiment [2], in experiment [3] and in experiment [4] was 2.1 to 4 µg/mL (≈ 3.67 to 6.99 µM) in each case.
Take `COCCO[C@@H](Cn1c(=O)n(C2CCN(C(C)C)C2=O)c(=O)c2c(C)c(-n3nccn3)sc21)c1cc(F)ccc1OC` (stereo partly drawn) [Compound I-4, 1-((R)-2-(5-fluoro-2-methoxyphenyl)-2-(2-methoxy-ethoxy)ethyl)-3-(1-isopropyl-2-oxopyrrolidin-3-yl)-5-methyl-6-(2H-1,2,3-triazol-2-yl)thieno[2,3-d]pyrimidine-2,4(1H,3H)-dione]: the values for the pIC50 in experiment [1] and in experiment [5] were 7.00 to 8.00 and 8.00 to 8.70, respectively. Further, the MIC in experiment [2], in experiment [3] and in experiment [4] was 2.1 to 4 µg/mL (≈ 3.5 to 6.66 µM) in each case.
Consider `COc1ccc(F)cc1[C@H](Cn1c(=O)n(C2CCN(C)C2=O)c(=O)c2c(C)c(-n3nccn3)sc21)OC1CCOCC1` (stereo partly drawn) [Compound I-10, 1-((R)-2-(5-fluoro-2-methoxyphenyl)-2-((tetrahydro-2H-pyran-4-yl)oxy)ethyl)-5-methyl-3-(1-methyl-2-oxopyrrolidin-3-yl)-6-(2H-1,2,3-triazol-2-yl)thieno[2,3-d]pyrimidine-2,4(1H,3H)-dione], for which the pIC50 in experiment [1] was 8.00 to 8.70; in experiment [5], 8.70 to 9.15. Moreover, the minimal inhibitory concentration (MIC) in experiment [3] and in experiment [4] was 0.25 to 1 µg/mL (≈ 0.418 to 1.67 µM) throughout.

What is called pIC50 is the negative decadic logarithm of the IC50, by convention in mol/L. As a reminder, the MIC is the least concentration at which growth counts as inhibited.

(Values after patent US20190330224A1, “ACC INHIBITORS AND USES THEREOF” (Gilead Apollo, LLC, priority 2015, published 2019).)
